# The source made the active and inactive calls.
# Key:
# [1] = PAX8-dependent cell viability loss – plate reader, dry powder, dose response (AID 743049); assay type: functional, cell-based
# Paired box protein Pax-8 = Paired box protein Pax-8 (Homo sapiens, UniProt Q06710); assay: PAX8 transcriptional activity inhibition in RMG-I – RMG-I cells, luciferase, cherry-pick, dose response (AID 687027); assay type: functional, cell-based;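 also: luciferase reporter driven by Pax8 target thyroperoxidase promoter measured by SteadyGlo luminescence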
# Chain of Paired box protein Pax-8 (Q06710 whole entry): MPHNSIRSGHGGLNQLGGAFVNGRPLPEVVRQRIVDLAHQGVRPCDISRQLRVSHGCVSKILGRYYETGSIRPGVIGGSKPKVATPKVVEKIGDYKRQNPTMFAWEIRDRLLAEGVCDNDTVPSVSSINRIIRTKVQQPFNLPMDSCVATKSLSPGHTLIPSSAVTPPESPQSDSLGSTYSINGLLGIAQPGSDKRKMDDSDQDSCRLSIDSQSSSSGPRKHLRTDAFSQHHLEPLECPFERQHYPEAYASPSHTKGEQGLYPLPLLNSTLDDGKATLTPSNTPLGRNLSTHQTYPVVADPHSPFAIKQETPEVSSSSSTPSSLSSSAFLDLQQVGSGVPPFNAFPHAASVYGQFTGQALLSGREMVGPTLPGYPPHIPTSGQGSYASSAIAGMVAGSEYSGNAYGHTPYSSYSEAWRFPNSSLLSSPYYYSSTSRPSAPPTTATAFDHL
# [2] = alpha-synuclein stem-loop translation blockers – luminescence, H4 neuroglioblastoma cells, dose confirmation, confirmation (AID 2454); assay type: functional, cell-based;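 also: H4 neuroglioblastoma cells carrying an alpha-synuclein 5'UTR luciferase reporter; potency for inhibition of the luciferase signal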
# [3] = OV-90 cell viability loss – plate reader, dry powder, SA8, PAX8 inhibitor project, dose response (AID 743149); assay type: functional, cell-based
# [4] = alpha-synuclein stem-loop luciferase translation blockers – H4 neuroglioma cells, luminescence, confirmation (AID 1988); assay type: functional, cell-based
# [5] = PAX5 cellular inhibition readout – cell-based, plate reader, dry powder samples, selectivity assay for PAX8 inhibitor project, dose response (AID 743047); assay type: functional;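 also: HEK293 cells carrying a Pax5 driven CD19 promoter luciferase reporter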
# [6] = OVCAR4 cell viability loss – plate reader, dry powder, SA11, cytotoxicity control for PAX8 inhibitor project, dose response (AID 743150); assay type: functional, cell-based; settings: OVCAR-4
# [7] = DRD fibroblast viability loss – cell-based, non-viral oncogenic, luminescence, dose response (AID 1934); assay type: functional; settings: Homo sapiens
# BJ [8] = assay: BJ-TERT fibroblast viability loss – cell-based, RAS-independent, luminescence, dose response (AID 1933); assay type: functional; settings: Homo sapiens
# [9] = A2780 cell killing – plate reader, dry powder samples, cytotoxicity control, dose response (AID 743046); assay type: functional, cell-based
# BJ [10] = assay: cells; assay type: functional, cell-based; settings: Homo sapiens
# [11] = luciferase reporter signal reduction – luminescence, H4-C neuroglioblastoma cells, dose response (AID 2458); assay type: functional, cell-based;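 also: H4 neuroglioblastoma cells stably carrying a luciferase reporter gene fusion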
# [12] = toxicity toward immortalized ovarian surface epithelium – cell-based, plate reader, dry powder samples, cytotoxicity control for PAX8 inhibitor project, dose response (AID 743045); assay type: functional
# [13] = COV362 cell viability loss – plate reader, dry powder, SA12, cytotoxicity control for PAX8 inhibitor project, dose response (AID 743144); assay type: functional, cell-based
# [14] = luciferase reporter signal suppression in cells – H4 neuroglioma cells, luminescence, dose response (AID 1990); assay type: functional, cell-based
# [15] = IGROV1 cell killing – plate reader, dry powder samples, PAX8 inhibitor project, dose response (AID 743043); assay type: functional, cell-based; settings: IGROV-1
# cells [16] = assay type: functional, cell-based
# BJ [17] = assay: growth inhibition of engineered Ras-driven BJ cells – cell-based, alamar blue fluorescence, cherrypicked samples, dose response (AID 2631); assay type: functional; settings: Homo sapiens;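 also: confirmatory dose-response assay in RAS-dependent BJ fibroblasts engineered with TERT, LT and ST, with cytotoxicity read by fluorescence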
# [18] = Luminescence Cell-Based Dose Response HTS to Identify Inhibitors of 5'UTR Stem-Loop Driven Prion Protein mRNA Translation in H4 Neuroglioblastoma Cells. [Related pubchem assays: 1827 (Project Summary), 1813 (Primary HTS)]; assay type: functional
# [19] = inhibitors acting on PAX2 in cells – cell-based, plate reader, dry powder samples, selectivity assay for PAX8 inhibitor project, dose response (AID 743048); assay type: functional;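 also: HEK293 cells carrying a WT1 promoter luciferase reporter driven by expressed Pax2; potency is for inhibition of Pax2 driven reporter signal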
# [20] = OVCAR-3 cell viability loss – plate reader, dry powder samples, PAX8 inhibitor project, dose response (AID 743044); assay type: functional, cell-based
# [21] = COV434 cell viability loss – plate reader, dry powder, SA7, cytotoxicity control for PAX8 inhibitor project, dose response (AID 743145); assay type: functional, cell-based
# Transthyretin = Transthyretin (Homo sapiens, UniProt P02766); assay: Luminescence-based cell-based high throughput dose response assay to identify activators of Transthyretin (TTR) transcription.; assay type: functional
# [22] = viability inhibitors of stage V gametocytes – luminescence, dose response (AID 1117278); assay type: functional, cell-based;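 also: gametocytes exposed to compound for 24 hours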
# [23] = viability loss in human Jurkat cells – cell-based, luminescence, cytotoxicity control for P. falciparum gametocyte viability project, dose response (AID 1117277); assay type: functional;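 also: potency reflects loss of cellular ATP meaning fewer viable cells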
# Vero = assay: viability of Vero cells under compound – cytotoxicity control for flavivirus capping enzyme inhibitors (AID 588742); assay type: functional; settings: Chlorocebus sabaeus
# [24] = biological target: Glutathione-S-transferase (Schistosoma japonicum, UniProt Q26513); assay: GST-antibody interaction or FRET quenching – biochemical, TR-FRET, artefact control for Vif-APOBEC3G degradation inhibitor project, dose response (AID 1117362); assay type: functional
# Chain of Glutathione-S-transferase (Q26513 whole entry): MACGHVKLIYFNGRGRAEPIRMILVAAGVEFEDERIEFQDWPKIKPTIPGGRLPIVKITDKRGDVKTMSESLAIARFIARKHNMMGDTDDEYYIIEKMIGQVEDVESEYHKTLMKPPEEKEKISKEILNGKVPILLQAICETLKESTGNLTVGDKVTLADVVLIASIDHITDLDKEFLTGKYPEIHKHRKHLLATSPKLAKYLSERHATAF
# [25] = NIH3T3 cell viability loss – ATP luminescence, mouse fibroblasts, counter-screen, dose response (AID 2010); assay type: functional, cell-based;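 also: cells exposed to compound for about 90 hours before reading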
# [26] = Trypanosoma cruzi growth suppression in host cells – NIH3T3 host cells, beta-gal luminescence, confirmation (AID 2044); assay type: functional, cell-based;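 also: intracellular parasites grown in NIH/3T3 mouse fibroblasts as host cells; luminescent beta-galactosidase reporter signal from transgenic T. cruzi replicating inside host cells; inhibitors lower the luminescence signal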
# [27] = IC50 of Artemis nuclease activity blockers – biochemical, fluorescence intensity, dose response (AID 720701); assay type: functional;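 also: Artemis endonuclease enzyme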
# cells [28] = assay type: functional, cell-based; remark: listed apart in the source
# cells [29] = assay type: functional, cell-based; remark: listed apart in the source
# [30] = biological target: T1, Trace amine-associated receptor 1 (Homo sapiens, UniProt Q96RJ0); assay: Fluorescence-based cell-based high throughput dose response assay to identify agonists of the human trace amine associated receptor 1 (TAAR1).; assay type: functional
# T1 sequence (Q96RJ0 whole entry): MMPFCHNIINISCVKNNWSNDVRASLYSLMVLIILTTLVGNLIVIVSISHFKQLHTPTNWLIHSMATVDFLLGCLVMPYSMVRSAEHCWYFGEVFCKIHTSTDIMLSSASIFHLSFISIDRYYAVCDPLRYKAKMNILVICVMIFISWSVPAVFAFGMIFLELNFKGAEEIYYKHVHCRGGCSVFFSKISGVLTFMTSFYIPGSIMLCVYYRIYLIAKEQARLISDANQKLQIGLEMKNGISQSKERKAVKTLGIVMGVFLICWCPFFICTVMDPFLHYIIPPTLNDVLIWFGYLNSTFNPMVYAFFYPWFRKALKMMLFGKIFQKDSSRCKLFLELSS
# [31] = biological target: T1, Trace amine-associated receptor 1; assay: Counterscreen for agonists of the human trace amine associated receptor 1 (hTAAR1): Fluorescence-based cell-based high throughput dose response assay to identify hTAAR1 agonist that also desensitize TAAR1 receptor response.; assay type: functional
# [32] = biological target: T2, Mannose-6-phosphate isomerase (Homo sapiens, UniProt P34949); assay: MPI inhibition at elevated mannose 6-phosphate – biochemical, fluorescence intensity, high mannose 6-phosphate, primary screen (AID 1220)
# T2 sequence (P34949 whole entry): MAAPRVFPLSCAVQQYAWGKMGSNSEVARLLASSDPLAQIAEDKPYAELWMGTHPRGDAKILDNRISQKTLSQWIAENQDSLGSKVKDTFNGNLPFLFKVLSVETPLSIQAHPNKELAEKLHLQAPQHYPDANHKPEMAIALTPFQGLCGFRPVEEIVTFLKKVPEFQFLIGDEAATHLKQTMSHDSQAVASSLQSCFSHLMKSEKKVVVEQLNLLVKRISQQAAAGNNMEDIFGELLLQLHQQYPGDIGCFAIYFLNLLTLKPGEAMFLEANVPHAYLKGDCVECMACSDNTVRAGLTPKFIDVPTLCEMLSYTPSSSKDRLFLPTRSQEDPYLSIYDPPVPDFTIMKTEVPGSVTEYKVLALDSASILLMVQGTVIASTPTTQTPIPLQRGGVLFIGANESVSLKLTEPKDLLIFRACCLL
# [33] = biological target: E3 ubiquitin-protein ligase Mdm2 (Homo sapiens, UniProt Q00987); assay: MDM2-luc reporter signal enhancers, multi-concentration potency testing, MDM2 ubiquitin-protein ligase inhibitor program, whole-cell format, luminescence detection, 384-well microplate (AID 1394); assay type: functional;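 also: MDM2 E3 inhibitors raise luminescence so EC50 is for signal enhancement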
# Chain of E3 ubiquitin-protein ligase Mdm2 (Q00987 whole entry): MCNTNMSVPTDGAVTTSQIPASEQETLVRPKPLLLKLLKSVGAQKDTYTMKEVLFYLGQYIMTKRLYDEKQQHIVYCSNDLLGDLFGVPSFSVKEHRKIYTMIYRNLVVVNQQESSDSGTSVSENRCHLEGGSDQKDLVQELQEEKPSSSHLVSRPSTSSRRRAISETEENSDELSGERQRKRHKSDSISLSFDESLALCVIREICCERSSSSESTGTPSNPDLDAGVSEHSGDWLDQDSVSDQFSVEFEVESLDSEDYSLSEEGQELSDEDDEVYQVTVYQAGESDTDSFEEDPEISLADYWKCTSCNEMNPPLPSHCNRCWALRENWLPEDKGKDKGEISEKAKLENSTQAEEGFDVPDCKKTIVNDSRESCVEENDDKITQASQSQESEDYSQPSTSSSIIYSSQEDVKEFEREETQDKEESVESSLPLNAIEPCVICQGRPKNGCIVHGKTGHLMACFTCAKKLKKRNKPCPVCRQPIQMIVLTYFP
smiles,measurement,setting,value
Cc1cccc(C)c1NS(=O)(=O)c1ccc(-c2cnc(C3CC3)o2)cc1,AC50,[1],5.36 µM (active)
same,AC50,Paired box protein Pax-8,1.74 µM (active)
same,EC50,[2],0.208 µM (active)
same,AC50,[3],0.973 µM (active)
same,EC50,[4],< 0.1 µM (active)
same,AC50,[5],4.58 µM (active)
same,AC50,[6],0.366 µM (active)
same,EC50,[7],60.4 µM (inconclusive)
same,EC50,BJ [8],0.158 µM (active)
same,AC50,[9],2.06 µM (active)
same,EC50,BJ [10],0.751 µM (inconclusive)
same,EC50,[11],0.113 µM (active)
same,AC50,[12],0.651 µM (active)
same,AC50,[13],0.401 µM (active)
same,EC50,[14],< 0.1 µM (active)
same,AC50,[15],5.04 µM (active)
same,EC50,cells [16],0.229 µM (active)
same,EC50,BJ [17],< 0.104 µM (active)
same,EC50,[18],> 120 µM (not active)
same,AC50,[19],22.4 µM (active)
same,AC50,[20],12.1 µM (active)
same,AC50,[21],0.329 µM (active)
Cn1cc(C2CC(c3ccccc3)=NN2C(=O)c2ccccc2)c2ccccc21 (stereo unspecified),EC50,Transthyretin,> 167 µM (inactive)
OCC1(Cc2ccccc2)CCN(Cc2cnc(-c3ccc(Cl)cc3)nc2)CC1,IC50,[22],> 109 µM (inactive)
same,IC50,[23],> 83.3 µM (inactive)
Cc1nn(-c2ccccn2)c2c1C(=O)C(Br)CC2 (stereo unspecified),CC50,Vero,> 40 µM (active)
same,IC50,[24],65.6 µM (active)
CCOC(=O)c1c(NC(=O)CSc2n[nH]c3c4ccccc4nc-3n2)sc2c1CCN(C)C2,EC50,[25],> 60 µM (not active)
same,EC50,[26],0.161 µM (active)
same,IC50,[27],10 µM (active)
O=[N+]([O-])c1ccc2c(c1NCCc1ccccc1)=NC1(CCCCC1)[N+]=2[O-],IC50,cells [28],> 29.9 µM (inactive)
same,EC50,cells [29],> 29.9 µM (inactive)
same,EC50,[30],3.09 µM (active)
same,IC50,[31],8.86 µM (active)
same,IC50,[32],> 50 µM (not active)
same,EC50,[33],393 µM (not active)
